The source made the active and inactive calls. No cut-off for these calls is given here. Bounds are passed on as bounds.

Assay [1] is described as follows: Growth inhibition of human CEM/VLB500 cells after 3 days by resazurin assay. The class given is functional. To be noted: CEM/VLB500, 72 h.
Another assay deals with Cytochrome P450 2C9 (Homo sapiens, UniProt P11712). Briefly: Inhibition of human CYP2C9 expressed in insect microsome after 45 mins. The assay is classed as ADME, microsomes.
Another assay addresses Cytochrome P450 2D6 (Homo sapiens, UniProt P10635). The experiment in a line: Inhibition of human CYP2D6 expressed in insect microsome after 30 mins. The assay is classed as ADME, microsomes.
In the next assay the target is Cytochrome P450 3A4 (Homo sapiens, UniProt P08684). The experiment in a line: Inhibition of human CYP3A4 expressed in insect microsome using 7-benzyloxy-4-trifluoromethylcoumarin substrate after 30 mins. The assay is classed as ADME, microsomes.
In a further assay the target is T1, Cytochrome P450 2B6 (Homo sapiens, UniProt P20813).
T1 sequence (P20813 whole entry): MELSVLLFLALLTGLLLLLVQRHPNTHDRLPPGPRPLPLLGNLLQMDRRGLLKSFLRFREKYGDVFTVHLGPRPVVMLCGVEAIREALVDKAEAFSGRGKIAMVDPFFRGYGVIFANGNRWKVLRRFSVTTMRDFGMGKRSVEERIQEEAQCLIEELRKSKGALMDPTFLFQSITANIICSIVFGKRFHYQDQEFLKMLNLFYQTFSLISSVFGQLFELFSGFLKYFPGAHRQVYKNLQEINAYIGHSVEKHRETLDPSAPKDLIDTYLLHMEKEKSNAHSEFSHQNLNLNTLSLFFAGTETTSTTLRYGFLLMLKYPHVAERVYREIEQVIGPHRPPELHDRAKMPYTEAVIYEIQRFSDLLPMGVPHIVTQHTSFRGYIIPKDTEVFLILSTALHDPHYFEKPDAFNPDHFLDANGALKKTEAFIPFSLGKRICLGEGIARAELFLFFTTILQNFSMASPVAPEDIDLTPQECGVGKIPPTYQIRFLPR
The experiment in a line: Inhibition of human CYP2B6 expressed in insect microsome after 30 mins. The class given is ADME, microsomes.

The target of another assay is T2, Cytochrome P450 2C8 (Homo sapiens, UniProt P10632).
T2 sequence (P10632 whole entry): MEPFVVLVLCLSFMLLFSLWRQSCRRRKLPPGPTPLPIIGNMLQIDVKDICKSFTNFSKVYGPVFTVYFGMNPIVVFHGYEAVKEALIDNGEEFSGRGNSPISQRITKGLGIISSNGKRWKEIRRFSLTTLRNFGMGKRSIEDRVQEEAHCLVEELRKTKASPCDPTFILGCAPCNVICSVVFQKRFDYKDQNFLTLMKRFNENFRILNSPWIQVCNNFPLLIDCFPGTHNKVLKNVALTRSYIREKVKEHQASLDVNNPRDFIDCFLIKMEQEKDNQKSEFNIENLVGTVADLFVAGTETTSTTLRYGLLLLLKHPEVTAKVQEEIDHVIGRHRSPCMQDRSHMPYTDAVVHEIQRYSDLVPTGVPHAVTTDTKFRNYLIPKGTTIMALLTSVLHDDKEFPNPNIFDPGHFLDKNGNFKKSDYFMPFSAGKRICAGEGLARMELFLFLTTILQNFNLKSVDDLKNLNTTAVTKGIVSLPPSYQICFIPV
The experiment in a line: Inhibition of human CYP2C8 expressed in insect microsome after 30 mins. The class given is ADME, microsomes.

The next assay deals with CEM/VLB500. Briefly: Growth inhibition of human CEM/VLB500 cells at 1 uM after 3 days by resazurin assay. The assay is classed as functional, cell-based. (In general: Alamar Blue is a resazurin reagent that responds to reducing activity.)
The target of the next assay is Cytochrome P450 2C19 (Homo sapiens, UniProt P33261). The experiment in a line: Inhibition of human CYP2C19 expressed in insect microsome after 30 mins. The assay is classed as ADME, microsomes.
For another assay, the target named is T3, Cytochrome P450 1A2 (Homo sapiens, UniProt P05177).
T3 sequence (P05177 whole entry): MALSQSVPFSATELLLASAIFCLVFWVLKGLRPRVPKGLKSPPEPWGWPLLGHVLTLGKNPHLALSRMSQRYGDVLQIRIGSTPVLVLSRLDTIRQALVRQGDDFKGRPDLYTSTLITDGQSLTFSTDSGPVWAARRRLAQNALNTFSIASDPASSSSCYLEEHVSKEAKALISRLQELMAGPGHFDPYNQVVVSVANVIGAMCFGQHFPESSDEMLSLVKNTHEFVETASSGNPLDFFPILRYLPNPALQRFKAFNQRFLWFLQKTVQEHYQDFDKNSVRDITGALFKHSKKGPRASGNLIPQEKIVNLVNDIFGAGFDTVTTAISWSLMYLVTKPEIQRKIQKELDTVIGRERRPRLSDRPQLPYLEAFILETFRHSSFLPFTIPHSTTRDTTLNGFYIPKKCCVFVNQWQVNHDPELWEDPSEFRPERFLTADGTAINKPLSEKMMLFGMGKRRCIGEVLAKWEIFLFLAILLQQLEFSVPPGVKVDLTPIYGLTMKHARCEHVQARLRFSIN
Briefly: Inhibition of human CYP1A2 expressed in insect microsome after 15 mins. The assay is classed as ADME, microsomes.

For a further assay, the target named is T4, Cytochrome P450 2A6 (Homo sapiens, UniProt P11509).
T4 sequence (P11509 whole entry): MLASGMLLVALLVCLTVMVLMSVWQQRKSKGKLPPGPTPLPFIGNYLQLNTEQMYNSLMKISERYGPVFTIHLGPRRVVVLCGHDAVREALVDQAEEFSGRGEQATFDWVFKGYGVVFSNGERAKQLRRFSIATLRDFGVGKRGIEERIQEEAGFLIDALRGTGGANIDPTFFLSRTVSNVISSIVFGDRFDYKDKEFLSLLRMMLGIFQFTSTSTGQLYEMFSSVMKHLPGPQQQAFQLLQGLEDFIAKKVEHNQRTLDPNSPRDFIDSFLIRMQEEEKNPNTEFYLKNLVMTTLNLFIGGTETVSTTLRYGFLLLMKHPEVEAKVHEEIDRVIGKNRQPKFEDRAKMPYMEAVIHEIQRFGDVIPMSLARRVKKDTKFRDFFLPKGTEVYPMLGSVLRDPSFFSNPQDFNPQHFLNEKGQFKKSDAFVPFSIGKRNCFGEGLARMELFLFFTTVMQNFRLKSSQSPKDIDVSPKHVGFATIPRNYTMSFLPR
Briefly: Inhibition of human CYP2A6 expressed in insect microsome after 15 mins. The class given is ADME, microsomes.

The next assay addresses Cytochrome P450 2E1 (Homo sapiens, UniProt P05181). The experiment in a line: Inhibition of human CYP2E1 expressed in insect microsome after 45 mins. The class given is ADME, microsomes.

Chain of Cytochrome P450 3A4 (P08684 whole entry): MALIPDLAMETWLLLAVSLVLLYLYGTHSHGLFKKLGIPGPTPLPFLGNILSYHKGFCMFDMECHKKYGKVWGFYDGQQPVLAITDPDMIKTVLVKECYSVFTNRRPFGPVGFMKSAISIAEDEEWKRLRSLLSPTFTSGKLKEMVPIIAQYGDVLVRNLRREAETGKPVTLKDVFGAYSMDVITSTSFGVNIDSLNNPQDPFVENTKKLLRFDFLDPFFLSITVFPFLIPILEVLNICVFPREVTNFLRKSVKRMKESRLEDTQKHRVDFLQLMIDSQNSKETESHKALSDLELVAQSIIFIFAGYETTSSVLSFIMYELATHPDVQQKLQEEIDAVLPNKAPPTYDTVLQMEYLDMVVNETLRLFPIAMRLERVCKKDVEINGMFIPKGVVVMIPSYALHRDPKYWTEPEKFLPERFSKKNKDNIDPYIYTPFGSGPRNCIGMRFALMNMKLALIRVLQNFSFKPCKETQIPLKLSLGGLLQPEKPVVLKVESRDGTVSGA
Chain of Cytochrome P450 2C19 (P33261 whole entry): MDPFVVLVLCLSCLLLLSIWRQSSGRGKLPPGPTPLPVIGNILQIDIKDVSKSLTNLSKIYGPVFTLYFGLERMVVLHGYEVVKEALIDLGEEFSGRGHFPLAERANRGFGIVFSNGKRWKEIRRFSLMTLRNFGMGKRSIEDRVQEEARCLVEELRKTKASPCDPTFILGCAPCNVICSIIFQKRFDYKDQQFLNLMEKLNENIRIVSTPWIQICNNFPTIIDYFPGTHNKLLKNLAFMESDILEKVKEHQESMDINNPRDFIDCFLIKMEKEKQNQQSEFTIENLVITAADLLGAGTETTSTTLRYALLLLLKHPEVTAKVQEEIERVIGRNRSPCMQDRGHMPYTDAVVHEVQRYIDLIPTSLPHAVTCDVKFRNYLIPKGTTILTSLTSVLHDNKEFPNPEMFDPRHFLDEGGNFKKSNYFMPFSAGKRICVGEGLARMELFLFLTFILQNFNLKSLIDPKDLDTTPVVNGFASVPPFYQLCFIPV
Chain of Cytochrome P450 2E1 (P05181 whole entry): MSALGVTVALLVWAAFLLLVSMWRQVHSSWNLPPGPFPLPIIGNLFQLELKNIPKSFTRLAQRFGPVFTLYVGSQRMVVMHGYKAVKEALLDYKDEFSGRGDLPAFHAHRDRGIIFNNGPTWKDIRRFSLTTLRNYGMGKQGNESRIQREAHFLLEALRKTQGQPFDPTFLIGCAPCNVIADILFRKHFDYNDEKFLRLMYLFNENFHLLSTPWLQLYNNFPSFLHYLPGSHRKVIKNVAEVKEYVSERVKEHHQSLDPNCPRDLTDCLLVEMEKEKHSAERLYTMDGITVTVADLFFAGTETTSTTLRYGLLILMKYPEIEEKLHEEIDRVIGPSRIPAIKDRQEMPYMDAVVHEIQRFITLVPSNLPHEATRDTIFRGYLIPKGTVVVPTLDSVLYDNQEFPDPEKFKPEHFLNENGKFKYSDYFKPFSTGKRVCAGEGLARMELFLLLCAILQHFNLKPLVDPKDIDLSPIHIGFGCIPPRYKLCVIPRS
Chain of Cytochrome P450 2C9 (P11712 whole entry): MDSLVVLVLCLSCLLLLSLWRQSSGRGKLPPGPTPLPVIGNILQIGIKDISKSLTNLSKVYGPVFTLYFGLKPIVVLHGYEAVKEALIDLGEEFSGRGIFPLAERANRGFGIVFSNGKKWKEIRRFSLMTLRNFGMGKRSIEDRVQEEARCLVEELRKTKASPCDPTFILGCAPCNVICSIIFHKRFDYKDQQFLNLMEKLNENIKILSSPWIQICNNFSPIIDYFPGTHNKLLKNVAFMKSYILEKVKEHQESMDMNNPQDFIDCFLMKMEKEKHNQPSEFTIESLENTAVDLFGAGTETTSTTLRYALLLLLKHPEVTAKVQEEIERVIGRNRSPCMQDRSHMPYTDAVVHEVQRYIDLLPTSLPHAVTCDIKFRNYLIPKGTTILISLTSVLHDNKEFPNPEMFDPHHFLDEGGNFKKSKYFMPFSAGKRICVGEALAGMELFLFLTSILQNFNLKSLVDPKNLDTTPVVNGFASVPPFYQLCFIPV
Chain of Cytochrome P450 2D6 (P10635 whole entry): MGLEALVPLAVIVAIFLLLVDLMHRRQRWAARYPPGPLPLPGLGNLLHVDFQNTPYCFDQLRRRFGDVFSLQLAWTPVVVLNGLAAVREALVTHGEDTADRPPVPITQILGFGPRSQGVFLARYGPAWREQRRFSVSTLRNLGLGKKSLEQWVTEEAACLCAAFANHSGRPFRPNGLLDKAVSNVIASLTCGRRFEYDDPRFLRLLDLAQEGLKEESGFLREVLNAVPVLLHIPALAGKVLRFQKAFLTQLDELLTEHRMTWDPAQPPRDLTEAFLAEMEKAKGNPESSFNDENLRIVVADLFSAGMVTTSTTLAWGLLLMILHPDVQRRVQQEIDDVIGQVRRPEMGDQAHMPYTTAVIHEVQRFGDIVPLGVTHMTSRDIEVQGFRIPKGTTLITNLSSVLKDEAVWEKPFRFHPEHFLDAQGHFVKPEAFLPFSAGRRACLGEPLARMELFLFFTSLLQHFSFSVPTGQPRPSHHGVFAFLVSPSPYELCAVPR

For the molecule `COc1ccc(CCN2CCC[C@@H]2CNC(=O)c2ccccc2NC(=O)c2cnc3ccccc3c2)cc1OC`, in assay [1], the GI50 (commonly the concentration giving 50% growth inhibition) is over 15 µM.
As to `COc1ccc(CN2CCN(c3ccc(NC(=O)c4cc(OC)c(OC)cc4NC(=O)c4cnc5ccccc5c4)cc3)CC2)cc1OC`, the IC50 (as a rule, the concentration at which inhibition is half-maximal) came to 0.0968 µM at Cytochrome P450 2C9; 17.3 µM at Cytochrome P450 2D6; 0.195 µM at Cytochrome P450 3A4; 100 µM at Cytochrome P450 2B6; 1.08 µM against Cytochrome P450 2C8; 0.393 µM against Cytochrome P450 2C19. For the same molecule, the IC50 against Cytochrome P450 1A2 stood at 6.68 µM. In [1], this molecule registered a GI50 of at least 15 µM. Further, the result in the assay on CEM/VLB500 was inactive.
For the molecule `COc1ccc(CCN(C)CCNC(=O)c2ccccc2NC(=O)c2cnc3ccccc3c2)cc1OC`, the IC50 was 2.08 µM on Cytochrome P450 2C9; over 100 µM against Cytochrome P450 2D6; 1.62 µM on Cytochrome P450 3A4; over 100 µM at Cytochrome P450 2A6; over 100 µM at Cytochrome P450 2B6; over 100 µM on Cytochrome P450 2E1. The 50% inhibitory concentration (IC50) is 5.82 µM against Cytochrome P450 2C8, 14.7 µM against Cytochrome P450 2C19 and over 100 µM at Cytochrome P450 1A2.
Molecule `COc1ccc(CCN(C)CCC[C@@](C#N)(c2ccc(OC)c(OC)c2)C(C)C)cc1OC` came in with a GI50 in assay [1] of over 15 µM.
As for `COc1ccc(CN2CCN(c3ccc(NC(=O)c4ccccc4NC(=O)c4cnc5ccccc5c4)cc3)CC2)cc1OC`, the IC50 against Cytochrome P450 2C9 was over 10 µM; on Cytochrome P450 2D6, over 100 µM; against Cytochrome P450 3A4, 20.2 µM; against Cytochrome P450 2A6, over 100 µM; on Cytochrome P450 2B6 it was over 100 µM; on Cytochrome P450 2E1, over 100 µM. Also, the IC50 against Cytochrome P450 2C8 was 13.3 µM; against Cytochrome P450 2C19, 23 µM; against Cytochrome P450 1A2, over 100 µM. For the same molecule, the GI50 in [1] is over 15 µM.
Molecule `O=C(Nc1ccccc1C(=O)N[C@@H]1CCCC[C@@H]1N1CCN(c2ccccc2)CC1)c1cnc2ccccc2c1` (racemic) had a GI50 in assay [1] of 11.5 µM.
With `COc1cc2c(cc1OC)CN(CCc1ccc(NC(=O)c3cc(OC)c(OC)cc3NC(=O)c3cnc4ccccc4c3)cc1)CC2`, the IC50 on Cytochrome P450 2C9 was 7.1 µM; against Cytochrome P450 2D6 it was 100 µM; at Cytochrome P450 2A6 it was over 100 µM; on Cytochrome P450 2B6 it was over 100 µM; against Cytochrome P450 2E1, over 100 µM; against Cytochrome P450 2C8, 45.3 µM. At Cytochrome P450 2C19, this molecule had an IC50 of over 10 µM. The same molecule showed a GI50 in assay [1] of 13.5 µM.
`COc1ccc(CCN2CCC[C@H]2CNC(=O)c2ccccc2NC(=O)c2cnc3ccccc3c2)cc1OC` gave a GI50 in assay [1] of over 15 µM.

These data come from ChEMBL document CHEMBL1147947, “In vitro activity of novel dual action MDR anthranilamide modulators with inhibitory activity on CYP-450 (Part 2)” (Bioorg Med Chem, 2007).
